This note sets out measurements from US10647675B2 (priority 2015, dated 2020).

Values after ≈ are worked out from the molar mass of the structure shown. Some results are limits rather than exact numbers.

For data set [1], the system named is Trichophyton mentagrophytes SM-110. Kind of data set: Antifungal activity evaluation test: minimum inhibitory concentration (MIC), broth dilution by reference to CLSI M38-A2. Particulars: SM110, read-out: MIC (T. menta.). The data set is classed as cell-based. The gist of the method: (§1)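 MIC read visually as lowest concentration inhibiting growth by at least 80% relative to control after 4 days at 35° C. Trichophyton strains inoculated at 2×10^3 cells/mL final in MOPS-buffered RPMI 1640 (pH 7.0); compounds as 2-fold DMSO series, CLSI M38-A2 basis.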
On the technique in general: In broth dilution the organism is exposed to a series of concentrations in liquid medium.

Data set [2] deals with Trichophyton rubrum KD-1130. The data set is described as above. The data set is classed as cell-based. The conditions noted are these: KD1130, read-out: MIC (T. rubrum). The gist of the method:
as §1

A short description of data set [3]: Nail permeability test through human nail using Franz cell. The data set is classed as in vitro ADME. Particulars: 5% in propylene glycol:ethanol (1:4), 32° C. The protocol: Permeability through human nail was measured by the method shown below using Franz cell. • Test Preparation: A test compound was dissolved in a propylene glycol:ethanol (1:4) mixed solution at a concentration of 5% to give a test preparation. As control compounds terbinafine and amorolfine were used. • (1) Human nail (thickness 300-500 μm) was fixed using a nail adapter for Franz cell, and mounted on Franz cell. • (2) The receptor chamber of the Franz cell was filled with phosphate buffer, and placed in a thermostatic chamber at 32° C. • (3) A test preparation was applied to the aforementioned human nail at 61 μL/cm^2, after which a receptor solution was collected over days, and the concentration of the test compound in the receptor was measured by a liquid chromatography mass spectrometry method (LC/MS/MS). The cumulative amount of drug permeation (μg/cm^2) was calculated from the measured drug concentration in the receptor. A cumulative amount of drug permeation relative to the time after start of the test was plotted and the slope at final 4 time points was taken as Flux (μg/cm^2/day). The abbreviations in the Table mean the following compounds • TBF: terbinafine • AMF: amorolfine

A word on the MIC: it is the lowest concentration that inhibits growth of the organism. Take `CCC(C)(C)c1ccc(CC(C)CN2C[C@@H](C)O[C@@H](C)C2)cc1` (stereo partly shown) [AMF, amorolfine, reference compound]: the MIC in data set [1] and in data set [2] was at most 0.1 µg/mL each time. In addition, the “nail permeability (Flux)” value in data set [3] was “D (D: <0.001)”.

`CCN(C)c1ncc(Oc2ncccc2-c2ccc(F)cc2OC)cn1` [I-184, N-ethyl-5-{[3-(4-fluoro-2-methoxyphenyl)pyridin-2-yl]oxy}-N-methylpyrimidin-2-amine]: the MIC in data set [1] and in data set [2] was at most 0.1 µg/mL throughout.

On to `COc1cccc(-c2cccnc2Oc2ccc(C(F)(F)F)nc2)c1` [I-2, 3-(3-methoxyphenyl)-2-{[6-(trifluoromethyl)pyridin-3-yl]oxy}pyridine], for which the MIC in data set [1] and in data set [2] was at most 0.1 µg/mL each time.

In the case of `COc1ncccc1-c1cccnc1Oc1ccc(C(C)(F)F)cc1` [I-298], the MIC in data set [1] and in data set [2] was at most 0.1 µg/mL throughout.

Take `COc1ccccc1-c1cccnc1Cc1ccc(C(F)(F)F)cc1` [I-439, 3-(2-methoxyphenyl)-2-[4-(trifluoromethyl)benzyl]pyridine]: the MIC in data set [1] and in data set [2] was 0.2 to 0.78 µg/mL (≈ 0.582 to 2.27 µM) each time.

Consider `COc1ccccc1-c1cccnc1Oc1cnc2c(c1)CCCC2OC(C)=O` (stereo not shown) [I-139, 3-{[3-(2-methoxyphenyl)pyridin-2-yl]oxy}-5,6,7,8-tetrahydroquinolin-8-yl acetate], for which the MIC in data set [1] and in data set [2] was 1.56 to 6.25 µg/mL throughout.

As for `C=C(C)c1ncc(Oc2ncccc2-c2ccc(F)cc2OC)cn1` [I-378, 5-{[3-(4-fluoro-2-methoxyphenyl)pyridin-2-yl]oxy}-2-(prop-1-en-2-yl)pyrimidine], the MIC in data set [1] and in data set [2] was at most 0.1 µg/mL each time.

Take `COc1ccccc1-c1cccnc1Oc1ccc(Cl)cc1` [I-199, 2-(4-chlorophenoxy)-3-(2-methoxyphenyl)pyridine]: the MIC in data set [1] and in data set [2] was at most 0.1 µg/mL throughout.

`COc1ccccc1-c1cccnc1Oc1ccc(OC(F)F)nc1` [I-370, 2-{[6-(difluoromethoxy)pyridin-3-yl]oxy}-3-(2-methoxyphenyl)pyridine]: the MIC in data set [1] and in data set [2] was at most 0.1 µg/mL each time.

Consider `CN(C/C=C/C#CC(C)(C)C)Cc1cccc2ccccc12` [TBF, terbinafine, reference compound], for which the MIC in data set [1] and in data set [2] was at most 0.1 µg/mL throughout. For the same molecule, the “nail permeability (Flux)” value in data set [3] is given as “D (D: <0.001)”.

As to `COCC(F)(F)c1ccc(Oc2ncccc2-c2ccc(F)cc2OC)cn1` [I-161, 2-{[6-(1,1-difluoro-2-methoxyethyl)pyridin-3-yl]oxy}-3-(4-fluoro-2-methoxyphenyl)pyridine], the minimal inhibitory concentration (MIC) in data set [1] and in data set [2] was at most 0.1 µg/mL throughout.

On to `COc1ccncc1-c1cccnc1Oc1ccc(OCc2ccccc2)nc1` [I-177, 2-{[6-(benzyloxy)pyridin-3-yl]oxy}-4′-methoxy-3,3′-bipyridine], for which the MIC in data set [1] and in data set [2] was at most 0.1 µg/mL in each case.

Turning to `COc1ccccc1-c1cncnc1Oc1ccc(C(F)F)cc1` [I-322, 4-[4-(difluoromethyl)phenoxy]-5-(2-methoxyphenyl)pyrimidine], the MIC in data set [1] and in data set [2] was at most 0.1 µg/mL each time.

Consider `COc1cc(F)ccc1-c1cccnc1Oc1ccc(C(C)(F)F)nc1` [I-82], for which the MIC in data set [1] and in data set [2] was at most 0.1 µg/mL in each case.

Turning to `CCCN(C)c1ncc(Oc2ncccc2-c2cc(Cl)cnc2OC)cn1` [I-452], the MIC in data set [1] and in data set [2] was at most 0.1 µg/mL throughout.

For `COc1ccccc1-c1cccnc1Oc1cnc(C(F)(F)C(F)(F)F)nc1` [I-181, 5-{[3-(2-methoxyphenyl)pyridin-2-yl]oxy}-2-(pentafluoroethyl)pyrimidine], the MIC in data set [1] is 0.2 to 0.78 µg/mL (≈ 0.503 to 1.96 µM); in data set [2], at most 0.1 µg/mL.

In the case of `COc1ccc(F)cc1-c1cncnc1Oc1ccc(C(C)(F)F)nc1` [I-360, 4-{[6-(1,1-difluoroethyl)pyridin-3-yl]oxy}-5-(5-fluoro-2-methoxyphenyl)pyrimidine], the MIC in data set [1] and in data set [2] was at most 0.1 µg/mL throughout.

For `COc1ccccc1-c1cccnc1Oc1ccc(COC(C)=O)nc1` [I-69, (5-{[3-(2-methoxyphenyl)-pyridin-2-yl]oxy}pyridin-2-yl)methyl acetate], the MIC in data set [1] and in data set [2] was 1.56 to 6.25 µg/mL throughout.

On to `O=Cc1ccccc1-c1cccnc1Oc1ccc(C(F)(F)F)nc1` [I-63, 2-(2-{[6-(trifluoromethyl)pyridin-3-yl]oxy}pyridin-3-yl)-benzaldehyde], for which the minimum inhibitory concentration (MIC) in data set [1] and in data set [2] was 0.2 to 0.78 µg/mL (≈ 0.581 to 2.27 µM) throughout.
